Biological target: T1, cathepsin L (CatL) (Ixodes ricinus, UniProt A4GTA6)
T1 sequence (A4GTA6 119-335): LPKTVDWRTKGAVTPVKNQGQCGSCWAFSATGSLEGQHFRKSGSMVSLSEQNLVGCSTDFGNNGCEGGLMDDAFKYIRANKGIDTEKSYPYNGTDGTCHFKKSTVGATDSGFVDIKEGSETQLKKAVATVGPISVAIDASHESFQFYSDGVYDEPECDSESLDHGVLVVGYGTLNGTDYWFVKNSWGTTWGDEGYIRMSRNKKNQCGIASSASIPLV
Assay: fluorimetric inhibition assay in gut extract
Type: biochemical
Settings: DTT; pH optimum; 35 °C; covalent

In the case of `CC(C)C[C@H](NC(=O)[C@H]1O[C@@H]1C(=O)O)C(=O)NCCCCNC(=N)N` [E-64], the “% inhibition” value is reported as “insensitive to E-64 (in contrast to cathepsins B, L and C)”.
